From PMC6770091, “P-Glycoprotein 1 Affects Chemoactivities of Resveratrol against Human Colorectal Cancer Cells” (Nutrients, 2019)

What was measured:
[1] = system: colon carcinoma cells (all cell lines); test: [3H]-resveratrol efflux in presence of other ABC protein inhibitors; type: cell-based, human
SW480 cells [2] = test: [3H]-resveratrol efflux measurement; type: in vitro ADME, human; details: for Vi = % of Resveratrol Efflux . min^−1: after 10 min uptake of 30 µM [3H]-resveratrol
Protocol: (§1) Resveratrol efflux was examined by incubating confluent cells in 6-well plates over 10 min with 30 µM tritiated resveratrol in complete medium at 37 °C. […] At the end of the incubation period, the labeled medium was removed and the cells were washed two times with PBS. Fresh medium (37 °C or 4 °C) was then quickly added to allow the cells to efflux tritiated resveratrol from 1 to 360 min. At the end of each time point, the cells were washed and lysed in NaOH 0.1 M, Na2CO3 2%, SDS 0.1%. The cell homogenates were transferred into flasks and cell-associated radioactivity was counted in a liquid scintillation analyzer.

MRP1 = target: T1, MRP1 (Homo sapiens, UniProt P33527); test: [3H]-resveratrol efflux, BHK 21 vs BHK21-MRP1 overexpressing clone; type: in vitro ADME; details: BHK 21/MRP1 vs control BHK 21, 30 µM [3H]-resveratrol, 37°C
T1 construct: expressed in transfected cells; host or cells: BHK 21 (baby hamster kidney) stably transfected clone BHK21-MRP1, provided by Dr. Attilio Di Pietro
Protocol: as §1, with “analyzer. We evaluated 60 min area under curves (AUC) by integrating exponential regression curves of [^3H]-resveratrol time course accumulation between 0 and 60 min.” for “analyzer.”

BCRP = details: human, not told, 30 µM
Protocol: as §1, with “analyzer. We evaluated 60 min area under curves (AUC) by integrating exponential regression curves of [^3H]-resveratrol time course accumulation between 0 and 60 min.” for “analyzer.”

MDR1 = details: mouse, not told, 30 µM
Protocol: as §1, with “analyzer. We evaluated 60 min area under curves (AUC) by integrating exponential regression curves of [^3H]-resveratrol time course accumulation between 0 and 60 min.” for “analyzer.”

MRP2 = details: human, 30 µM
Protocol: as §1, with “analyzer. We evaluated 60 min area under curves (AUC) by integrating exponential regression curves of [^3H]-resveratrol time course accumulation between 0 and 60 min.” for “analyzer.”

HT29 cells [3] = test: [3H]-resveratrol efflux measurement; type: in vitro ADME, human; details: after 10 min uptake of 30 µM [3H]-resveratrol
Protocol: as §1, with “analyzer. We evaluated 60 min area under curves (AUC) by integrating exponential regression curves of [^3H]-resveratrol time course accumulation between 0 and 60 min.” for “analyzer.”

HCT116 cells [4] = test: [3H]-resveratrol efflux measurement; type: in vitro ADME, human; details: after 10 min uptake of 30 µM [3H]-resveratrol
Protocol: as §1, with “analyzer. We evaluated 60 min area under curves (AUC) by integrating exponential regression curves of [^3H]-resveratrol time course accumulation between 0 and 60 min.” for “analyzer.”

SW620 cells [5] = test: [3H]-resveratrol efflux measurement; type: in vitro ADME, human; details: after 10 min uptake of 30 µM [3H]-resveratrol
Protocol: as §1, with “analyzer. We evaluated 60 min area under curves (AUC) by integrating exponential regression curves of [^3H]-resveratrol time course accumulation between 0 and 60 min.” for “analyzer.”

HT29 cells [6] = test: Cytotoxicity assay, crystal violet staining; type: cell-based; details: Homo sapiens, HT-29, HT29, 72 h, read-out: IC50 (concentration inhibiting 50% of the tumor proliferation)
Protocol: (§2) Cell lines were seeded into 96-well plates. After 24 h of culture, the cells were treated with increasing concentrations of resveratrol for 72 h. All control and treated cells received the same volume of ethanol (0.1%). After time of treatment, cells were harvested and the toxicities were evaluated by crystal violet staining. Briefly, after treatments cells were washed with PBS 1X, stained for 5 min with a crystal violet solution (0.5% (w/v) crystal violet in 25% (v/v) methanol), and then gently rinsed with water. Absorbances were read at 540 nm with a Biochrom Asys UVM 340 spectrophotometer, after the extraction of the dye by 0.1 M sodium citrate in 50% ethanol. The inhibitory concentrations 50% (IC50) were assessed by crystal violet staining after 72 h of treatment. IC50 values were calculated by a four-parameter non-linear regression with GraphPad Prismversion 6 software (San Diego, California, CA, USA). In some experiments, after 24 h of seeding, cells were treated with resveratrol (30 µM) for 48 h before crystal violet staining. All results were expressed as percentages of control values (vehicle alone).

HCT116 cells [7] = test: Cytotoxicity assay, crystal violet staining; type: cell-based; details: Homo sapiens, HCT-116, HCT116, 72 h, read-out: IC50 (concentration inhibiting 50% of the tumor proliferation)
Protocol: as §2

SW480 cells [8] = test: Cytotoxicity assay, crystal violet staining; type: cell-based; details: Homo sapiens, SW480, 72 h, read-out: IC50 (concentration inhibiting 50% of the tumor proliferation)
Protocol: as §2

SW620 cells [9] = test: Cytotoxicity assay, crystal violet staining; type: cell-based; details: Homo sapiens, SW-620, SW620, 72 h, read-out: IC50 (concentration inhibiting 50% of the tumor proliferation)
Protocol: as §2

T1 sequence (P33527 whole entry): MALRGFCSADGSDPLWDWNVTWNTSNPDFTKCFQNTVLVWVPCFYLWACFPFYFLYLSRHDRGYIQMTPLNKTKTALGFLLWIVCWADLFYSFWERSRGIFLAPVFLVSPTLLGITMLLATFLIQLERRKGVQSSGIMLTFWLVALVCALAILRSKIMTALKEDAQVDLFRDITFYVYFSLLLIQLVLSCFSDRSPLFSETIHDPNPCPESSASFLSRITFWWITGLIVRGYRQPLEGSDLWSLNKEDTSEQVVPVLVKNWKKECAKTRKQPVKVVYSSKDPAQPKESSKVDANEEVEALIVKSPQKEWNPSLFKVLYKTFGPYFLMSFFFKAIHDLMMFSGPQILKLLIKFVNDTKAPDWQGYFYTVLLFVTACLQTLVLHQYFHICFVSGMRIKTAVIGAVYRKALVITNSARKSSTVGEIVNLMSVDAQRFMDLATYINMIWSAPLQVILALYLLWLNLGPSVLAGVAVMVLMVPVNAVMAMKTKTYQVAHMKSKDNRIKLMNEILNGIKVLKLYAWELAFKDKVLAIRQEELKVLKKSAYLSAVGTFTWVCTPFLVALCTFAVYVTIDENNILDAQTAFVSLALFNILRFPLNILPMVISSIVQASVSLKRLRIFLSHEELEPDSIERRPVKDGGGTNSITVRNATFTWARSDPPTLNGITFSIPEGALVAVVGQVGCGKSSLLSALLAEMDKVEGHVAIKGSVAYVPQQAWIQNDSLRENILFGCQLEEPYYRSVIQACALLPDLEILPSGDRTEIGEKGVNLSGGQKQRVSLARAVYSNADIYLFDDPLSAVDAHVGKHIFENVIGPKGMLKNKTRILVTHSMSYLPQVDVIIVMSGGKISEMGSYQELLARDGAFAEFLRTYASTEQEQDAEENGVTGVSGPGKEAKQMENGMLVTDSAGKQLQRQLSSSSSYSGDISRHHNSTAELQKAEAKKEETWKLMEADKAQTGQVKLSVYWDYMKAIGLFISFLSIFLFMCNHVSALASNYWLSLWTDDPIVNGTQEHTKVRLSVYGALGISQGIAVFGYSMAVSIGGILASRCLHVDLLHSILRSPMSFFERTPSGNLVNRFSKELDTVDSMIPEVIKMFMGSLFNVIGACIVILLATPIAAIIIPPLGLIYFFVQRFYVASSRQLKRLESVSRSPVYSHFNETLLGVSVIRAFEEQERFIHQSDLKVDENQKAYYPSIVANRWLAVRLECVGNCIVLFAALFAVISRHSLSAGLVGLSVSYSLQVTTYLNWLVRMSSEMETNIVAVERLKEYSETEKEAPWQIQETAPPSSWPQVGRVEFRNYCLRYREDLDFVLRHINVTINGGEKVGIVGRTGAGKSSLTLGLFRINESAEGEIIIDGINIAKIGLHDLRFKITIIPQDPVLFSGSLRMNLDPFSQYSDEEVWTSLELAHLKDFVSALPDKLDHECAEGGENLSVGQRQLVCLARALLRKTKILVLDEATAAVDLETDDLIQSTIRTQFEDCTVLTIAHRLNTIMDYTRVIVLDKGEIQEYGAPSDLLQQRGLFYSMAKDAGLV

CCCN(CCC)S(=O)(=O)c1ccc(C(=O)O)cc1 [probenicid]
effect on resveratrol retention [1]: enhance resveratrol retention

COc1ccc2c(c1)c(CC(=O)O)c(C)n2C(=O)c1ccc(Cl)cc1 [indomethacin, reference compound]
inhibition of the release of RSV (SW480 cells [2]; SW480, inhibitor 20 µM pretreatment 10 min, 5 min efflux at 37 °C): 1.8 fold

O=c1c(O)c(-c2ccc(O)c(O)c2)oc2cc(O)cc(O)c12 [quercetin]
effect on resveratrol retention [1]: enhance resveratrol retention

Oc1ccc(/C=C/c2cc(O)cc(O)c2)cc1 [RSV, trans 3,5,4′ trihydroxystilbene]
effect of MRP1 overexpression on intracellular RSV level (MRP1): early slight effect
inhibition of RSV accumulation (AUC 0-60 min of intracellular RSV level) by transporter overexpression (BCRP): 1.7 fold
inhibition of RSV accumulation (AUC 0-60 min of intracellular RSV level) by transporter overexpression (MDR1): 1.7 fold
AUC (0-60 min, intracellular RSV level) diminished between control cells and MRP2 overexpressing one (MRP2): 1.2 fold
Vi = % of Resveratrol Efflux . min^−1 (SW480 cells [2]; SW480, 4°C): 4.7 % of Resveratrol Efflux . min^−1
Vi = % of Resveratrol Efflux . min^−1 (SW480 cells [2]; SW480, 37 °C): 6.3 % of Resveratrol Efflux . min^−1
Vi = % of Resveratrol Efflux . min^−1 (HT29 cells [3]; HT29, 4°C): 4.3 % of Resveratrol Efflux . min^−1
Vi = % of Resveratrol Efflux . min^−1 (HT29 cells [3]; HT29, 37 °C): 5.9 % of Resveratrol Efflux . min^−1
Vi = % of Resveratrol Efflux . min^−1 (HCT116 cells [4]; HCT116, 4°C): 2.6 % of Resveratrol Efflux . min^−1
Vi = % of Resveratrol Efflux . min^−1 (HCT116 cells [4]; HCT116, 37 °C): 6.4 % of Resveratrol Efflux . min^−1
Vi = % of Resveratrol Efflux . min^−1 (SW620 cells [5]; SW620, 4°C): 2.8 % of Resveratrol Efflux . min^−1
Vi = % of Resveratrol Efflux . min^−1 (SW620 cells [5]; SW620, 37 °C): 5.7 % of Resveratrol Efflux . min^−1
IC50 (HT29 cells [6]): ~40 µM
IC50 (HCT116 cells [7]): ~25 µM
IC50 (SW480 cells [8]): ~70 µM
IC50 (SW620 cells [9]): ~20 µM

C=C[C@H]1C[N@@]2CC[C@H]1C[C@H]2[C@H](O)c1ccnc2ccc(OC)cc12 [quinine]
effect on resveratrol retention [1]: enhance resveratrol retention

[O]=[V]([O-])([O-])[O-] [orthovanadate]
effect on resveratrol retention [1]: enhance resveratrol retention

C[C@@H]1O[C@@H](O[C@H]2C[C@@H](O)[C@]3(CO)[C@H]4[C@H](O)C[C@]5(C)[C@@H](C6=CC(=O)OC6)CC[C@]5(O)[C@@H]4CC[C@]3(O)C2)[C@H](O)[C@H](O)[C@H]1O [ouabain]
effect on resveratrol retention [1]: enhance resveratrol retention
